Test results taken from patent US5147876A, “2,6-di,2,4,6-, 2,5,6-tri and 2,4,5,6-tetra-substituted pyrimidines, their pharmaceutically acceptable salts, pharmaceutical compositions containing same and their use in the treatment of neurological diseases” (Mitsui Petrochemical Industries, Ltd., priority 1988, dated 1992).

Assays:
[1] = system: NS-20Y (mouse neuroblastoma cells); test: Activity on NS-20Y cells: appearance of neurites; assay type: cell-based
Summary of the method: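 Mouse neuroblastoma NS-20Y cells were grown in polyornithine-coated dishes in DMEM with 10 % FCS, 100 units/ml penicillin G sodium and 100 micrograms/ml streptomycin sulfate, at 37° C under 5 % carbon dioxide, and exposed to compound. Cells were fixed with 4 % glutaraldehyde, stained with 0.05 % methylene blue, and the fraction bearing neurites at least twice the cell's long diameter was counted microscopically.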

[2] = Acute toxicity on mice; assay type: in vivo; details: mouse, in vivo, ip, 24 hours after administration; read-out: Estimated LD50
Procedure: The acute toxicity of the compounds of the invention was examined by the following method.
Male ddy-strain 5-week old mice, 4-6- per group, were used as experimental animals. Each of the compounds was intraperitoneally (i.p.), and the toxicity of the compound was assessed 24 hours after the administration.

[3] = system: neuro-2a (mouse neuroblastoma cells); test: Action on neuro-2a: proportion of cells containing outgrown neurites; assay type: cell-based; details: mean ± S.D.
Summary of the method: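 Read-out is the percentage of neurite-bearing cells (neurite ≥2× long cell diameter), counted microscopically over more than 200 cells per well. Before fixation and staining, neuro-2a cells (1,000/well, DMEM + 10% FCS) were cultured for one day at 37 °C; up to six compound concentrations, three runs each.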

Compound | LD50 at 24 h [2] [mg/kg] | Number of cells having neurites with a length at least two times the diameter of each cell/total number of cells ([3]; 0.03 mM) [%] | Number of cells having neurites with a length at least two times the diameter of each cell/total number of cells ([3]; 0.1 mM) [%] | Number of cells having neurites with a length at least two times the diameter of each cell/total number of cells ([3]; 0.3 mM) [%] | Number of cells having neurites with a length at least two times the diameter of each cell/total number of cells ([3]; 1 mM) [%] | Number of cells in which neurites appeared/total number of cells ([1]; 24 hours, 0.1 mM) | Number of cells in which neurites appeared/total number of cells ([1]; 48 hours, 0.1 mM) | other results
CC(C)C(=O)N(C)c1ccnc(N2CCC(c3ccccc3)CC2)n1 [Compound 216] | > 1000 | 6.3 ± 2.4 | 26.6 ± 5.6 |  |  |  |  | Number of cells in which neurites appeared/total number of cells ([1]; 24 hours, 0.025 mM): 3/49; Number of cells in which neurites appeared/total number of cells ([1]; 48 hours, 0.025 mM): 24/50; Number of cells in which neurites appeared/total number of cells ([1]; 48 hours, 0.05 mM): 20/50; Number of cells having neurites with a length at least two times the diameter of each cell/total number of cells ([3]; 0.01 mM): 3.7 ± 0.4%
CN(C(=O)C1CCCCC1)c1ccnc(N2CCC(c3ccccc3)CC2)n1 [Compound 232] | > 1000 | 3.9 ± 1.8 | 18.7 ± 5.2 |  |  |  |  | Number of cells in which neurites appeared/total number of cells ([1]; 24 hours, 0.025 mM): 2/50; Number of cells in which neurites appeared/total number of cells ([1]; 48 hours, 0.01 mM): 2/49
CN(C(=O)c1ccc(Cl)cc1)c1ccnc(N2CCC(c3ccccc3)CC2)n1 [Compound 240] | > 1000 | 19.8 ± 5.7 | 38.7 ± 4.5 | 33.2 ± 0.9 | 30.9 ± 5.9 |  |  | Number of cells in which neurites appeared/total number of cells ([1]; 24 hours, 0.2 mM): 4/50; Number of cells in which neurites appeared/total number of cells ([1]; 48 hours, 0.2 mM): 3/50
CN(C(=O)c1ccc([N+](=O)[O-])cc1)c1ccnc(N2CCC(c3ccccc3)CC2)n1 [Compound 264] | 500 to 1000 |  | 5.2 ± 3.1 | 8.7 ± 1.6 | 15.2 ± 3.2 |  |  | Number of cells in which neurites appeared/total number of cells ([1]; 24 hours, 0.4 mM): 8/48; Number of cells in which neurites appeared/total number of cells ([1]; 48 hours, 0.4 mM): 4/50; Number of cells having neurites with a length at least two times the diameter of each cell/total number of cells ([3]; 3 mM): 7.2 ± 1.8%
COc1ccc(C(=O)N(C)c2ccnc(N3CCC(c4ccccc4)CC3)n2)cc1 [Compound 272] | > 1000 | 4.8 ± 1.3 | 30.9 ± 2.8 | 15.9 ± 0.5 | 17.0 ± 4.3 | 33/50 | 17/50 | Number of cells in which neurites appeared/total number of cells ([1]; 24 hours, 0.2 mM): 24/50
COc1cc(C(=O)N(C)c2ccnc(N3CCC(c4ccccc4)CC3)n2)cc(OC)c1OC [Compound 280] | 500 to 1000 | 4.5 ± 1.2 | 17.2 ± 1.3 | 13.4 ± 3.5 | 17.4 ± 2.6 |  | 8/53 | Number of cells in which neurites appeared/total number of cells ([1]; 24 hours, 0.2 mM): 3/50
CN(C(=O)c1ccc(-c2ccccc2)cc1)c1ccnc(N2CCC(c3ccccc3)CC2)n1 [Compound 288] | 500 to 1000 | 1.4 ± 0.1 | 3.3 ± 0.9 | 3.8 ± 1.9 | 5.1 ± 2.7 | 2/52 | 2/50 | 
CN(C(=O)c1ccccc1)c1ccnc(N2CCC(Cc3ccccc3)CC2)n1 [Compound 304] | > 1000 |  | 38.1 ± 1.6 | 15.3 ± 6.3 |  | 40/50 |  | Number of cells in which neurites appeared/total number of cells ([1]; 48 hours, 0.01 mM): 3/50
CC(=O)N(C)c1ccnc(N2CCCc3ccccc32)n1 [Compound 320] | > 1000 |  | 7.2 ± 0.2 | 8.5 ± 1.1 |  | 8/50 | 6/50 | 
CN(C(=O)c1ccccc1)c1ccnc(N2CCCc3ccccc32)n1 [Compound 328] | > 1000 | 10.2 ± 8.2 | 28.0 ± 6.8 | 10.6 ± 3.4 |  | 32/50 | 12/51 | Number of cells in which neurites appeared/total number of cells ([1]; 48 hours, 0.025 mM): 8/50; Number of cells having neurites with a length at least two times the diameter of each cell/total number of cells ([3]; 0.01 mM): 6.6 ± 0.5%
CN(C(=O)c1ccccc1)c1ccnc(N2CCN(c3ccccc3)CC2)n1 [Compound 360] | > 1000 | 6.5 ± 0.7 | 10.0 ± 0.7 |  |  | 18/50 | 4/50 | Number of cells in which neurites appeared/total number of cells ([1]; 24 hours, 0.02 mM): 8/50
CN(C(=O)c1ccccc1)c1ccnc(N2CCN(Cc3ccccc3)CC2)n1 [Compound 368] | 500 to 1000 | 3.5 ± 0.5 | 9.0 ± 1.8 |  |  | 14/50 | 5/50 | Number of cells in which neurites appeared/total number of cells ([1]; 48 hours, 0.05 mM): 8/51
CN(C(=O)c1ccccc1)c1ccnc(N2CCN(C(c3ccccc3)c3ccc(Cl)cc3)CC2)n1 (stereo not shown) [Compound 376] | 500 to 1000 | 13.6 ± 1.2 | 14.7 ± 1.5 | 17.2 ± 1.4 | 16.4 ± 3.0 |  | 2/50 | Number of cells in which neurites appeared/total number of cells ([1]; 24 hours, 0.2 mM): 2/50
CC(=O)N(C)c1cc(C)nc(N2CCC(c3ccccc3)CC2)n1 [Compound 392] | 500 to 1000 |  | 14.6 ± 6.0 | 30.9 ± 5.7 | 23.8 ± 4.2 | 8/50 | 3/43 | Number of cells in which neurites appeared/total number of cells ([1]; 48 hours, 0.05 mM): 6/51; Number of cells having neurites with a length at least two times the diameter of each cell/total number of cells ([3]; 3 mM): 11.1 ± 9.7%
Cc1cc(N(C)C(=O)c2ccccc2)nc(N2CCC(c3ccccc3)CC2)n1 [Compound 400] | 500 to 1000 |  |  | 11.4 ± 4.3 | 16.0 ± 2.7 | 9/50 | 3/50 | Number of cells in which neurites appeared/total number of cells ([1]; 24 hours, 0.4 mM): 30/53; Number of cells in which neurites appeared/total number of cells ([1]; 48 hours, 0.4 mM): 3/48
Cc1cnc(N2CCC(c3ccccc3)CC2)nc1N(C)C(=O)c1ccccc1 [Compound 424] | > 1000 | 4.5 ± 1.4 | 7.6 ± 1.3 |  |  |  |  | Number of cells in which neurites appeared/total number of cells ([1]; 24 hours, 0.4 mM): 16/50; Number of cells in which neurites appeared/total number of cells ([1]; 48 hours, 0.4 mM): 3/50
CN(C(=O)c1ccccc1)c1nccc(N2CCCCC2)n1 [Compound 604] | < 500 |  | 18.7 ± 4.1 | 24.6 ± 2.9 |  |  |  | Number of cells in which neurites appeared/total number of cells ([1]; 24 hours, 0.02 mM): 6/50; Number of cells in which neurites appeared/total number of cells ([1]; 24 hours, 0.4 mM): 7/50; Number of cells in which neurites appeared/total number of cells ([1]; 48 hours, 0.02 mM): 2/50
CC1CCN(c2ccnc(N(C)C(=O)c3ccccc3)n2)CC1 [Compound 612] | 500 to 1000 | 19.1 ± 3.0 | 19.4 ± 3.9 | 22.4 ± 2.4 |  | 2/50 | 2/50 | Number of cells having neurites with a length at least two times the diameter of each cell/total number of cells ([3]; 0.01 mM): 13.8 ± 1.5%
